Reference: patent US20260285850A1, “SUBSTITUTED OXAZOLIDINONES AND IMIDAZOLINONES AS HERBICIDES” (FMC CORPORATION, priority 2023, published 2026)

Experiments:
Assay type in all cases: in vivo
[1] = system: barnyardgrass (Echinochloa crus-galli); assay: Test A preemergence soil spray, visual injury rating 0-100; conditions: 10 days
How it was run: (§1)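 Plants were grown in a loam soil-sand blend and treated with test chemical in a non-phytotoxic solvent mixture containing surfactant, either sprayed on soil preemergence or applied postemergence to 2-10 cm plants. After 10 days in a greenhouse, injury was scored visually against untreated controls, 0 meaning no effect and 100 complete control.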

[2] = system: blackgrass (Alopecurus myosuroides); assay: as above; conditions: 10 days
How it was run: as §1

corn (Zea mays) [3] = assay: as above; conditions: 10 days
How it was run: as §1

[4] = system: green foxtail (Setaria viridis); assay: as above; conditions: 10 days
How it was run: as §1

kochia (Bassia scoparia) [5] = assay: as above; conditions: 10 days
How it was run: as §1

[6] = system: oat, wild (wild oat, Avena fatua); assay: as above; conditions: 10 days
How it was run: as §1

[7] = system: palmer (palmer amaranth, palmer pigweed, Amaranthus palmeri); assay: as above; conditions: 10 days
How it was run: as §1

[8] = system: ragweed (common ragweed, Ambrosia artemisiifolia); assay: as above; conditions: 10 days
How it was run: as §1

[9] = system: ryegrass, Italian (italian ryegrass, Lolium multiflorum); assay: as above; conditions: 10 days
How it was run: as §1

soybean (Glycine max) [10] = assay: as above; conditions: 10 days
How it was run: as §1

[11] = system: wheat (Triticum aestivum); assay: as above; conditions: 10 days
How it was run: as §1

[12] = system: barnyardgrass (Echinochloa crus-galli); assay: Test A postemergence application, visual injury rating 0-100
How it was run: as §1

[13] = system: blackgrass (Alopecurus myosuroides); assay: as above
How it was run: as §1

corn (Zea mays) [14] = assay: as above
How it was run: as §1

[15] = system: green foxtail (Setaria viridis); assay: as above
How it was run: as §1

[16] = system: horseweed (Erigeron canadensis); assay: as above
How it was run: as §1

kochia (Bassia scoparia) [17] = assay: as above
How it was run: as §1

[18] = system: oat, wild (wild oat, Avena fatua); assay: as above
How it was run: as §1

[19] = system: palmer (palmer amaranth, palmer pigweed, Amaranthus palmeri); assay: as above
How it was run: as §1

[20] = system: ragweed (common ragweed, Ambrosia artemisiifolia); assay: as above
How it was run: as §1

[21] = system: ryegrass, Italian (italian ryegrass, Lolium multiflorum); assay: as above
How it was run: as §1

soybean (Glycine max) [22] = assay: as above
How it was run: as §1

[23] = system: wheat (Triticum aestivum); assay: as above
How it was run: as §1

[24] = system: barnyardgrass (Echinochloa crusgalli); assay: Test B flooded paddy test, visual plant response rating 0-100; conditions: 250 g ai/ha, Flood, applied to paddy water, evaluated after 13 days
How it was run: (§2)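 Paddy-water application: test compounds went directly into water flooded 3 cm above the soil surface, with plants at 2 leaves. After a 13-day greenhouse period, responses were judged by eye relative to controls; a dash marks an untested entry.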

[25] = system: ducksalad (Heteranthera limosa); assay: as above; conditions: 250 g ai/ha, Flood, applied to paddy water, evaluated after 13 days
How it was run: as §2

rice (Oryza sativa) = assay: as above; conditions: 250 g ai/ha, Flood, applied to paddy water, evaluated after 13 days
How it was run: as §2

[26] = system: sedge, umbrella (small-flower umbrella sedge, Cyperus difformis); assay: as above; conditions: 250 g ai/ha, Flood, applied to paddy water, evaluated after 13 days
How it was run: as §2

[27] = 62 g ai/ha, 0 = no effect, 100 = complete control
[28] = 62 g ai/ha, postemergence, 10 days, 0 = no effect, 100 = complete control
[29] = Postemergence, 16 g ai/ha, greenhouse 10 days, 0 no effect, 100 complete control

Compound: CC1(C(=O)NC2C=CC(C(=O)NO)C2)CN(c2cc(F)cc(F)c2)C(=O)O1 (centres unmarked) [Compound 137]
- Barnyardgrass plant response rating ([1]; 16 g ai/ha, 0 to 100 scale): 0
- Barnyardgrass plant response rating (0-100) [1, 27]: 60
- Blackgrass plant response rating ([2]; 16 g ai/ha, 0 to 100 scale): 0
- Blackgrass plant response rating (0-100) [2, 27]: 50
- Corn plant response rating (corn (Zea mays) [3]; 16 g ai/ha, 0 to 100 scale): 0
- Corn plant response rating (0-100) (corn (Zea mays) [3]; [27]): 10
- Foxtail, Green plant response rating ([4]; 16 g ai/ha, 0 to 100 scale): 0
- Foxtail, Green plant response rating (0-100) [4, 27]: 30
- Kochia plant response rating (kochia (Bassia scoparia) [5]; 16 g ai/ha, 0 to 100 scale): 0
- Kochia plant response rating (0-100) (kochia (Bassia scoparia) [5]; [27]): 90
- Oat, Wild plant response rating ([6]; 16 g ai/ha, 0 to 100 scale): 0
- Oat, Wild plant response rating (0-100) [6, 27]: 30
- Pigweed, Palmer plant response rating ([7]; 16 g ai/ha, 0 to 100 scale): 20
- Pigweed, Palmer plant response rating (0-100) [7, 27]: 70
- Ragweed plant response rating ([8]; 16 g ai/ha, 0 to 100 scale): 0
- Ragweed plant response rating (0-100) [8, 27]: 0
- Ryegrass, Italian plant response rating ([9]; 16 g ai/ha, 0 to 100 scale): 30
- Ryegrass, Italian plant response rating (0-100) [9, 27]: 60
- Soybean plant response rating (soybean (Glycine max) [10]; 16 g ai/ha, 0 to 100 scale): 0
- Soybean plant response rating (0-100) (soybean (Glycine max) [10]; [27]): 50
- Wheat plant response rating ([11]; 16 g ai/ha, 0 to 100 scale): 20
- Wheat plant response rating (0-100) [11, 27]: 90
- Barnyardgrass plant response rating (0-100) [12, 28]: 70
- Barnyardgrass plant response rating (0 to 100 scale) [12, 29]: 0
- Blackgrass plant response rating (0-100) [13, 28]: 60
- Blackgrass plant response rating (0 to 100 scale) [13, 29]: 0
- Corn plant response rating (0-100) (corn (Zea mays) [14]; [28]): 50
- Corn plant response rating (0 to 100 scale) (corn (Zea mays) [14]; [29]): 10
- Foxtail, Green plant response rating (0-100) [15, 28]: 10
- Foxtail, Green plant response rating (0 to 100 scale) [15, 29]: 0
- Horseweed plant response rating (0-100) [16, 28]: 50
- Horseweed plant response rating (0 to 100 scale) [16, 29]: 0
- Kochia plant response rating (0-100) (kochia (Bassia scoparia) [17]; [28]): 50
- Kochia plant response rating (0 to 100 scale) (kochia (Bassia scoparia) [17]; [29]): 0
- Oat, Wild plant response rating (0-100) [18, 28]: 30
- Oat, Wild plant response rating (0 to 100 scale) [18, 29]: 0
- Pigweed, Palmer plant response rating (0-100) [19, 28]: 30
- Pigweed, Palmer plant response rating (0 to 100 scale) [19, 29]: 0
- Ragweed plant response rating (0-100) [20, 28]: 0
- Ragweed plant response rating (0 to 100 scale) [20, 29]: 0
- Ryegrass, Italian plant response rating (0-100) [21, 28]: 30
- Ryegrass, Italian plant response rating (0 to 100 scale) [21, 29]: 0
- Soybean plant response rating (0-100) (soybean (Glycine max) [22]; [28]): 60
- Soybean plant response rating (0 to 100 scale) (soybean (Glycine max) [22]; [29]): 0
- Wheat plant response rating (0-100) [23, 28]: 70
- Wheat plant response rating (0 to 100 scale) [23, 29]: 0
- Plant response rating, Barnyardgrass (0 to 100 scale, 0 is no effect and 100 is complete control) [24]: 0
- Plant response rating, Ducksalad (0 to 100 scale, 0 is no effect and 100 is complete control) [25]: 0
- Plant response rating, Rice (0 to 100 scale, 0 is no effect and 100 is complete control) (rice (Oryza sativa)): 0
- Plant response rating, Sedge, Umbrella (0 to 100 scale, 0 is no effect and 100 is complete control) [26]: 0
